Measured values as given in patent publication US20230085307A1, “PYRIDAZINONE COMPOUND AND HERBICIDE” (NISSAN CHEMICAL CORPORATION, priority 2019, published 2023).

Tests used:
green foxtail [1] = experiment: Test Example 4: herbicidal effect by soil treatment (Table 19, symbol G); format: in vivo, green foxtail (Setaria viridis); conditions: amount of applied herbicide 320 g/ha
In short: (§1)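 In this soil treatment, the formulated compound reached the seeds only through the soil: seeds were buried about 1.5 cm deep in sterilized diluvial soil, then the diluted emulsion was sprayed over the surface. After three weeks at 25° C. to 30° C. in a greenhouse, effects were graded on criteria from an earlier test.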

oval-leafed pondweed = experiment: Test Example 2: herbicidal activity, application during weed generation under submerged conditions (Table 17, symbol C); format: in vivo, oval-leafed pondweed (Monochoria vaginalis); conditions: AAH 320 g/ha; application during weed generation, submerged conditions
In short: (§2)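 Mixed weed seedlings in alluvial soil under a 4 cm water layer, greenhouse-grown at 25–30° C. Compound given as a diluted emulsion into the floodwater at the 1–2 leaf stage; response graded after three weeks.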

redroot pigweed [2] = experiment: Test Example 5: herbicidal effect by foliage application, plastic box (Table 20, symbol N); format: in vivo, redroot pigweed (Amaranthus retroflexus); conditions: foliage application, 320 g/ha, evaluated three weeks after application
In short: (§3)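 Plants were sown into sterilized diluvial soil under about 1.5 cm cover and kept in a greenhouse at 25° C. to 30° C. Fourteen days on, foliage received an even spray of the diluted emulsion. Herbicidal or crop effect was judged three weeks afterwards.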

chickweed [3] = experiment: Test Example 4: herbicidal effect by soil treatment (Table 19, symbol P); format: in vivo, common chickweed (Stellaria media); conditions: amount of applied herbicide 320 g/ha
In short: as §1

windgrass [4] = experiment: Test Example 5: herbicidal effect by foliage application, plastic box (Table 20, symbol L); format: in vivo, windgrass (Apera spica-venti); conditions: foliage application, 320 g/ha, evaluated three weeks after application
In short: as §3

barnyard grass [5] = experiment: Test Example 5: herbicidal effect by foliage application, plastic box (Table 20, symbol H); format: in vivo, barnyard grass (Echinochloa crus-galli); conditions: foliage application, 320 g/ha, evaluated three weeks after application
In short: as §3

late watergrass = experiment: Test Example 2: herbicidal activity, application during weed generation under submerged conditions (Table 17, symbol A); format: in vivo, late watergrass (Echinochloa oryzicola); conditions: AAH 320 g/ha; application during weed generation, submerged conditions
In short: as §2

Chinese sprangletop = experiment: Test Example 3: herbicidal effect by foliage application, Wagner pot (Table 18, symbol D); format: in vivo, chinese sprangletop (Leptochloa chinensis); conditions: 320 g/ha
In short: (§4)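 Plants were sown in alluvial soil held under 0.1–0.5 cm standing water and grown 14 days in a greenhouse at 25–30 °C. An emulsifiable formulation, water-diluted to the set dose, was then sprayed onto the foliage, and effects were scored three weeks later using previously defined criteria.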

green foxtail [6] = experiment: Test Example 5: herbicidal effect by foliage application, plastic box (Table 20, symbol G); format: in vivo, green foxtail (Setaria viridis); conditions: foliage application, 320 g/ha, evaluated three weeks after application
In short: as §3

persian speedwell [7] = experiment: Test Example 5: herbicidal effect by foliage application, plastic box (Table 20, symbol R); format: in vivo, Persian speedwell (Veronica persica); conditions: foliage application, 320 g/ha, evaluated three weeks after application
In short: as §3

barnyard grass [8] = experiment: Test Example 3: herbicidal effect by foliage application, Wagner pot (Table 18, symbol H); format: in vivo, barnyard grass (Echinochloa crus-galli); conditions: 320 g/ha
In short: as §4

Italian ryegrass [9] = experiment: Test Example 5: herbicidal effect by foliage application, plastic box (Table 20, symbol K); format: in vivo, Italian ryegrass (Lolium multiflorum); conditions: foliage application, 320 g/ha, evaluated three weeks after application
In short: as §3

rice flat sedge = experiment: Test Example 3: herbicidal effect by foliage application, Wagner pot (Table 18, symbol E); format: in vivo, rice flat sedge (Cyperus iria); conditions: 320 g/ha
In short: as §4

velvetleaf [10] = experiment: Test Example 5: herbicidal effect by foliage application, plastic box (Table 20, symbol M); format: in vivo, velvetleaf (Abutilon theophrasti); conditions: foliage application, 320 g/ha, evaluated three weeks after application
In short: as §3

velvetleaf [11] = experiment: Test Example 4: herbicidal effect by soil treatment (Table 19, symbol M); format: in vivo, velvetleaf (Abutilon theophrasti); conditions: amount of applied herbicide 320 g/ha
In short: as §1

chickweed [12] = experiment: Test Example 5: herbicidal effect by foliage application, plastic box (Table 20, symbol P); format: in vivo, common chickweed (Stellaria media); conditions: foliage application, 320 g/ha, evaluated three weeks after application
In short: as §3

persian speedwell [13] = experiment: Test Example 4: herbicidal effect by soil treatment (Table 19, symbol R); format: in vivo, Persian speedwell (Veronica persica); conditions: amount of applied herbicide 320 g/ha
In short: as §1

blackgrass [14] = experiment: Test Example 4: herbicidal effect by soil treatment (Table 19, symbol J); format: in vivo, blackgrass (Alopecurus myosuroides); conditions: amount of applied herbicide 320 g/ha
In short: as §1

windgrass [15] = experiment: Test Example 4: herbicidal effect by soil treatment (Table 19, symbol L); format: in vivo, windgrass (Apera spica-venti); conditions: amount of applied herbicide 320 g/ha
In short: as §1

lambsquarters [16] = experiment: Test Example 5: herbicidal effect by foliage application, plastic box (Table 20, symbol O); format: in vivo, lambsquarters (Chenopodium album); conditions: foliage application, 320 g/ha, evaluated three weeks after application
In short: as §3

false cleavers [17] = experiment: Test Example 4: herbicidal effect by soil treatment (Table 19, symbol Q); format: in vivo, false cleavers (Galium spurium); conditions: amount of applied herbicide 320 g/ha
In short: as §1

wild oat [18] = experiment: Test Example 5: herbicidal effect by foliage application, plastic box (Table 20, symbol I); format: in vivo, wild oat (Avena fatua); conditions: foliage application, 320 g/ha, evaluated three weeks after application
In short: as §3

blackgrass [19] = experiment: Test Example 5: herbicidal effect by foliage application, plastic box (Table 20, symbol J); format: in vivo, blackgrass (Alopecurus myosuroides); conditions: foliage application, 320 g/ha, evaluated three weeks after application
In short: as §3

lambsquarters [20] = experiment: Test Example 4: herbicidal effect by soil treatment (Table 19, symbol O); format: in vivo, lambsquarters (Chenopodium album); conditions: amount of applied herbicide 320 g/ha
In short: as §1

barnyard grass [21] = experiment: Test Example 4: herbicidal effect by soil treatment (Table 19, symbol H); format: in vivo, barnyard grass (Echinochloa crus-galli); conditions: amount of applied herbicide 320 g/ha
In short: as §1

southern crabgrass [22] = experiment: Test Example 4: herbicidal effect by soil treatment (Table 19, symbol F); format: in vivo, southern crabgrass (Digitaria ciliaris); conditions: amount of applied herbicide 320 g/ha
In short: as §1

Italian ryegrass [23] = experiment: Test Example 4: herbicidal effect by soil treatment (Table 19, symbol K); format: in vivo, Italian ryegrass (Lolium multiflorum); conditions: amount of applied herbicide 320 g/ha
In short: as §1

false cleavers [24] = experiment: Test Example 5: herbicidal effect by foliage application, plastic box (Table 20, symbol Q); format: in vivo, false cleavers (Galium spurium); conditions: foliage application, 320 g/ha, evaluated three weeks after application
In short: as §3

wild oat [25] = experiment: Test Example 4: herbicidal effect by soil treatment (Table 19, symbol I); format: in vivo, wild oat (Avena fatua); conditions: amount of applied herbicide 320 g/ha
In short: as §1

redroot pigweed [26] = experiment: Test Example 4: herbicidal effect by soil treatment (Table 19, symbol N); format: in vivo, redroot pigweed (Amaranthus retroflexus); conditions: amount of applied herbicide 320 g/ha
In short: as §1

Japanese bulrush = experiment: Test Example 2: herbicidal activity, application during weed generation under submerged conditions (Table 17, symbol B); format: in vivo, Japanese bulrush (Schoenoplectus juncoides); conditions: AAH 320 g/ha; application during weed generation, submerged conditions
In short: as §2

southern crabgrass [27] = experiment: Test Example 5: herbicidal effect by foliage application, plastic box (Table 20, symbol F); format: in vivo, southern crabgrass (Digitaria ciliaris); conditions: foliage application, 320 g/ha, evaluated three weeks after application
In short: as §3

CCCC(=O)Oc1c(C)nn(C)c(=O)c1-c1c(-c2ccc(OC)cc2)sc2ccc(Cl)cc12 [2-104]
G: green foxtail, herbicidal effect rating (green foxtail [1]): 0 (Herbicidal rate of 5% or less (almost no effect)) | herbicidal effect rating, C: oval-leafed pondweed (oval-leafed pondweed): 2 (Herbicidal rate of 20% or more and less than 40%) | herbicidal effect on N: redroot pigweed (redroot pigweed [2]): 3 (Herbicidal rate of 40% or more and less than 70%) | P: chickweed, herbicidal effect rating (chickweed [3]): 3 (Herbicidal rate of 40% or more and less than 70%) | herbicidal effect on L: windgrass (windgrass [4]): 0 (Herbicidal rate of 5% or less (almost no effect)) | herbicidal effect on H: barnyard grass (barnyard grass [5]): 0 (Herbicidal rate of 5% or less (almost no effect)) | herbicidal effect rating, A: late watergrass (late watergrass): 0 (Herbicidal rate of 5% or less (almost no effect)) | herbicidal effect on D (Chinese sprangletop), rating 0-5 (Chinese sprangletop): 0 (Herbicidal rate of 5% or less (almost no effect)) | herbicidal effect on G: green foxtail (green foxtail [6]): 0 (Herbicidal rate of 5% or less (almost no effect)) | herbicidal effect on R: persian speedwell (persian speedwell [7]): 5 (Herbicidal rate of 90% or more (almost completely withered)) | herbicidal effect on H (barnyard grass), rating 0-5 (barnyard grass [8]): 3 (Herbicidal rate of 40% or more and less than 70%) | herbicidal effect on K: Italian ryegrass (Italian ryegrass [9]): 0 (Herbicidal rate of 5% or less (almost no effect)) | herbicidal effect on E (rice flat sedge), rating 0-5 (rice flat sedge): 5 (Herbicidal rate of 90% or more (almost completely withered)) | herbicidal effect on M: velvetleaf (velvetleaf [10]): 3 (Herbicidal rate of 40% or more and less than 70%) | M: velvetleaf, herbicidal effect rating (velvetleaf [11]): 3 (Herbicidal rate of 40% or more and less than 70%) | herbicidal effect on P: chickweed (chickweed [12]): 5 (Herbicidal rate of 90% or more (almost completely withered)) | R: persian speedwell, herbicidal effect rating (persian speedwell [13]): 5 (Herbicidal rate of 90% or more (almost completely withered)) | J: blackgrass, herbicidal effect rating (blackgrass [14]): 0 (Herbicidal rate of 5% or less (almost no effect)) | L: windgrass, herbicidal effect rating (windgrass [15]): 0 (Herbicidal rate of 5% or less (almost no effect)) | herbicidal effect on O: lambsquarters (lambsquarters [16]): 2 (Herbicidal rate of 20% or more and less than 40%) | Q: false cleavers, herbicidal effect rating (false cleavers [17]): 0 (Herbicidal rate of 5% or less (almost no effect)) | herbicidal effect on I: wild oat (wild oat [18]): 0 (Herbicidal rate of 5% or less (almost no effect)) | herbicidal effect on J: blackgrass (blackgrass [19]): 0 (Herbicidal rate of 5% or less (almost no effect)) | O: lambsquarters, herbicidal effect rating (lambsquarters [20]): 3 (Herbicidal rate of 40% or more and less than 70%) | H: barnyard grass, herbicidal effect rating (barnyard grass [21]): 0 (Herbicidal rate of 5% or less (almost no effect)) | F: southern crabgrass, herbicidal effect rating (southern crabgrass [22]): 0 (Herbicidal rate of 5% or less (almost no effect)) | K: Italian ryegrass, herbicidal effect rating (Italian ryegrass [23]): 0 (Herbicidal rate of 5% or less (almost no effect)) | herbicidal effect on Q: false cleavers (false cleavers [24]): 1 (Herbicidal rate of 5% or more and less than 20%) | I: wild oat, herbicidal effect rating (wild oat [25]): 0 (Herbicidal rate of 5% or less (almost no effect)) | N: redroot pigweed, herbicidal effect rating (redroot pigweed [26]): 4 (Herbicidal rate of 70% or more and less than 90%) | herbicidal effect rating, B: Japanese bulrush (Japanese bulrush): 0 (Herbicidal rate of 5% or less (almost no effect)) | herbicidal effect on F: southern crabgrass (southern crabgrass [27]): 0 (Herbicidal rate of 5% or less (almost no effect))
